Reference: patent US10710978B2, “STK4 inhibitors for treatment of hematologic malignancies” (Dana-Farber Cancer Institute, Inc., priority 2015, dated 2020)
Read-outs that look alike come from different tables or passages of the source.

Tests used:
Experiment in all cases: KiNativ assay
Format in all cases: binding
MASTL = MASTL (Homo sapiens (Human), UniProt Q96GX5); details: H929 live cell
Protocol: (§1) Biochemical IC50s of the compounds of the present disclosure against various kinases were measured in a KiNativ assay. Compounds were screened in duplicate at 10 μM in H929 live cell. IC50 was measured via Mass spectroscopy (MS).

TYK2 domain2 = TYK2 domain2 (Homo sapiens (Human), UniProt P29597); details: H929 live cell
Sequence of TYK2 domain2 (P29597 whole entry, the tested form may be a part): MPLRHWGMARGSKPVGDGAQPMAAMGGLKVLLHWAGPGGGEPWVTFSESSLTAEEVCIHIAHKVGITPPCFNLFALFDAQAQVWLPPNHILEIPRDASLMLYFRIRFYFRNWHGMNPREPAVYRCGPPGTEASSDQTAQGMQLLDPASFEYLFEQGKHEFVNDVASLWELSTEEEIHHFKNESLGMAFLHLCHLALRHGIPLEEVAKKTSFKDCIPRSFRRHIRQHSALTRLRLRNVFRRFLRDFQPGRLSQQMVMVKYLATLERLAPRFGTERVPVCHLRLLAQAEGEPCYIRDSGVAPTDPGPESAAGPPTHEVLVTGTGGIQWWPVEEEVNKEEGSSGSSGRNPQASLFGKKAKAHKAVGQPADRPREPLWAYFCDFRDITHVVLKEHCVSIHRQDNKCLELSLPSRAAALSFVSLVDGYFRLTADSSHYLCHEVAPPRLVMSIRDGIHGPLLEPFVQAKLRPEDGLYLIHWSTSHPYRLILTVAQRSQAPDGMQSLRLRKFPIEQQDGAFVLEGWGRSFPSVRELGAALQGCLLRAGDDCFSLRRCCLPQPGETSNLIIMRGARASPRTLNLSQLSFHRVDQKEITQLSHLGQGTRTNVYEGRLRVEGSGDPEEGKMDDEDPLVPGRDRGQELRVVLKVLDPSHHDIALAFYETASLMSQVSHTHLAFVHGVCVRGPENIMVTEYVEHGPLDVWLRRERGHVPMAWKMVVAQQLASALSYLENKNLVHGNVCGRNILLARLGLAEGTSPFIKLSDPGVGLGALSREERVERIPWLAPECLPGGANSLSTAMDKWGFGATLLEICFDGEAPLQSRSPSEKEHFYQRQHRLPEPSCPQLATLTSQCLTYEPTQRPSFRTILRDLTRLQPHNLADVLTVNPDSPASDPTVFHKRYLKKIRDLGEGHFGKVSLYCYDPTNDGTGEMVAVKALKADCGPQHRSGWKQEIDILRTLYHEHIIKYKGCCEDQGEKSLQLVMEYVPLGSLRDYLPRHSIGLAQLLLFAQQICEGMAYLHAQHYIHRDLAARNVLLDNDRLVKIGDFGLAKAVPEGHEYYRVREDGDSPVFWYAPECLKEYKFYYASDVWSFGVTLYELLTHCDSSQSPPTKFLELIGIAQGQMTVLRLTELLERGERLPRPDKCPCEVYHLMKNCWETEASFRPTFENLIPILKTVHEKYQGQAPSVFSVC
Protocol: as §1

p38d, p38g = details: H929 live cell
Protocol: as §1

PKR = PKR (Homo sapiens (Human), UniProt P19525); details: H929 live cell
Sequence of PKR (P19525 whole entry): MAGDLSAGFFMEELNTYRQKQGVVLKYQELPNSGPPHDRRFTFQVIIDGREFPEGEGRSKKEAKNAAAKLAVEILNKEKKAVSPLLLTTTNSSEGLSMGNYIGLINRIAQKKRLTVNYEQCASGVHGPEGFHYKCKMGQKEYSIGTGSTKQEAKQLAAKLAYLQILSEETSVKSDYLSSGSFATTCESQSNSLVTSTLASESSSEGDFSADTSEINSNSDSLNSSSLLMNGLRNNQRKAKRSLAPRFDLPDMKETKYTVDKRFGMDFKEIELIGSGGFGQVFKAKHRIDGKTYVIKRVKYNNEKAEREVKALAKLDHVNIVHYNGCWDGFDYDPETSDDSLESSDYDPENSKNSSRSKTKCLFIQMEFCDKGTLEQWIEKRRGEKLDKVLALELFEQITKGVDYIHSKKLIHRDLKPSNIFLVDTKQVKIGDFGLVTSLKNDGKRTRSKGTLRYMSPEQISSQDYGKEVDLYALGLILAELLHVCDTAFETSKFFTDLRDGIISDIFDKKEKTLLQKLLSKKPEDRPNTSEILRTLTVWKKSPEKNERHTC
Protocol: as §1

NuaK1 = NuaK1 (Homo sapiens (Human), UniProt O60285); details: H929 live cell
Sequence of NuaK1 (O60285 whole entry): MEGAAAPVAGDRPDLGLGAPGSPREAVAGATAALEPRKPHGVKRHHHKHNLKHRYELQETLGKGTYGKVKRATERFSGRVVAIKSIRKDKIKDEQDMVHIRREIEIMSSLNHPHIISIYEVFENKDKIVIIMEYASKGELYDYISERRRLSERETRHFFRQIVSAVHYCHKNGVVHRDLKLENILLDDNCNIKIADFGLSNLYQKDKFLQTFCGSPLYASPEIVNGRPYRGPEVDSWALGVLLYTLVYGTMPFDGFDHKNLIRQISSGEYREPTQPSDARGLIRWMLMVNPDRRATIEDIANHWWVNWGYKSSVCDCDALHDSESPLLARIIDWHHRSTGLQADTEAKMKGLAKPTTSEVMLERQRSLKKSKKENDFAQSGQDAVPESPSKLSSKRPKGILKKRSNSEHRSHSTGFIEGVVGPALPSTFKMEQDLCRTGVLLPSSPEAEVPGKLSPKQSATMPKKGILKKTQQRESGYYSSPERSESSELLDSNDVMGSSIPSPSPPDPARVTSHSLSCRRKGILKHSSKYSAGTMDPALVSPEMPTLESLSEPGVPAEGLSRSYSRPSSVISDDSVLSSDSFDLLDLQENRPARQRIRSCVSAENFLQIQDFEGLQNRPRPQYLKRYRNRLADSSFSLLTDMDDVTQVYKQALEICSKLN
Protocol: as §1

CK1a = CK1a (Homo sapiens (Human), UniProt P48729); details: H929 live cell
Protocol: as §1

Erk1 = Erk1 (Homo sapiens (Human), UniProt P27361); details: H929 live cell
Protocol: as §1

CLK2 = CLK2 (Homo sapiens (Human), UniProt P49760); details: H929 live cell
Protocol: as §1

MPSK1 = MPSK1 (Homo sapiens (Human), UniProt O75716); details: H929 live cell, read-out: inhibition (10 μM)
Protocol: as §1

CDK7 = CDK7 (Homo sapiens (Human), UniProt P50613); details: H929 live cell
Protocol: as §1

PKCi = PKCi (Homo sapiens (Human), UniProt P41743); details: H929 live cell
Protocol: as §1

NEK3 = NEK3 (Homo sapiens (Human), UniProt P51956); details: H929 live cell
Sequence of NEK3 (P51956 whole entry): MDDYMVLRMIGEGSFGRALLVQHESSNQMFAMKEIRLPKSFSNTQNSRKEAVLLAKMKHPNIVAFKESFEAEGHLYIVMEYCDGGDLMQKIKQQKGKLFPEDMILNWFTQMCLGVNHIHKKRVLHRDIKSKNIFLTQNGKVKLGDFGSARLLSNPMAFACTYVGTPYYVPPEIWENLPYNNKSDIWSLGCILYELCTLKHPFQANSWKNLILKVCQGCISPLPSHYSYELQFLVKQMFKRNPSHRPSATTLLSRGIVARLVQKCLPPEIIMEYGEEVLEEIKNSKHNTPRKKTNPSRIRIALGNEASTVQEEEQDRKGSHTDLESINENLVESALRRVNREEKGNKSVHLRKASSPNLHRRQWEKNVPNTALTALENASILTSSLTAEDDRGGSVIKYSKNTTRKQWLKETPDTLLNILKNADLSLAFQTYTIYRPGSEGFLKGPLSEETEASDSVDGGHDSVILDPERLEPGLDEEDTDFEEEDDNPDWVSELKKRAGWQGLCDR
Protocol: as §1

MARK3 = MARK3 (Homo sapiens (Human), UniProt P27448); details: H929 live cell
Sequence of MARK3 (P27448 whole entry): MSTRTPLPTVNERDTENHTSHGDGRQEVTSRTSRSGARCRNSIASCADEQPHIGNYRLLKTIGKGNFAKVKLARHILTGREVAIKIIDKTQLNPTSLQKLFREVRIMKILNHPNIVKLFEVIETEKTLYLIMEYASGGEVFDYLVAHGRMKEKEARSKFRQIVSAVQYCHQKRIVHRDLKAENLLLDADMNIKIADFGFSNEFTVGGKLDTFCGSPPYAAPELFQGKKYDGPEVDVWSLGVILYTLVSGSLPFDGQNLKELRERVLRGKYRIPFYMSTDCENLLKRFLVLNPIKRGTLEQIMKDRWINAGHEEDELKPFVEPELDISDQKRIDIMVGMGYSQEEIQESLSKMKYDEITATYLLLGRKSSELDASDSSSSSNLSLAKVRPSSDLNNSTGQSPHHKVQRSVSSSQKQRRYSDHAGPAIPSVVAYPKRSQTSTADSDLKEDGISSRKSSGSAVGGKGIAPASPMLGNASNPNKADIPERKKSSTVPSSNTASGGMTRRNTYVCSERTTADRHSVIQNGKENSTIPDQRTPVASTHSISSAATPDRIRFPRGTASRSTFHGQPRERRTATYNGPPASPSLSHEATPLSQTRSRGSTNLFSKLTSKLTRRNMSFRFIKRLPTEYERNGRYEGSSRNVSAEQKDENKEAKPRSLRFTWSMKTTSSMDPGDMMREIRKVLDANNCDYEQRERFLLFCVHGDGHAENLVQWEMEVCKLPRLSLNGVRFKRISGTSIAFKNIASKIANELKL
Protocol: as §1

IRAK1 = IRAK1 (Homo sapiens (Human), UniProt P51617); details: H929 live cell
Protocol: as §1

GSK3A = GSK3A (Homo sapiens (Human), UniProt P49840); details: H929 live cell
Protocol: as §1

MST1 = MST1 (Homo sapiens (Human), UniProt Q13043); details: H929 live cell
Sequence of MST1 (Q13043 whole entry): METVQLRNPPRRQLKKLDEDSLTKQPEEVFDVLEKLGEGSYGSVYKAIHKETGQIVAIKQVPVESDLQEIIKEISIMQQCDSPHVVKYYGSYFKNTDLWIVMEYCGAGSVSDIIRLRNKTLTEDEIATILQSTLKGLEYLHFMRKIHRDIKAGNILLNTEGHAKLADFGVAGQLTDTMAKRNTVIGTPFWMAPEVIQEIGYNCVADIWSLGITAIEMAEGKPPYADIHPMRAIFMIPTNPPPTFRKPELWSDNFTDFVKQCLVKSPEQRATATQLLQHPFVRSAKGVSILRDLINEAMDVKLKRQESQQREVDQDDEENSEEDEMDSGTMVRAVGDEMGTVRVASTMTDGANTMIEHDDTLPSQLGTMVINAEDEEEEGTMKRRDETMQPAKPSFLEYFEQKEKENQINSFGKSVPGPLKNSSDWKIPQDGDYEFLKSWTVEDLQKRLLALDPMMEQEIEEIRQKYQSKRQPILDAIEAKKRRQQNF
Protocol: as §1

MAP2K3 = MAP2K3 (Homo sapiens (Human), UniProt P46734); details: H929 live cell
Protocol: as §1

p70S6K = p70S6K (Homo sapiens (Human), UniProt P23443); details: H929 live cell
Protocol: as §1

MAST3 = MAST3 (Homo sapiens (Human), UniProt O60307); details: H929 live cell
Protocol: as §1

p38a = p38a (Homo sapiens (Human), UniProt Q16539); details: H929 live cell, read-out: % inhibition (range)
Outline: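 Live H929 cells, compound 10 μM, duplicate; KiNativ probe profiling; IC50 by MS.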

SNRK = SNRK (Homo sapiens (Human), UniProt Q9NRH2); details: H929 live cell
Protocol: as §1

HPK1 = HPK1 (Homo sapiens (Human), UniProt Q92918); details: H929 live cell
Protocol: as §1

JAK3 domain2 = JAK3 domain2 (Homo sapiens (Human), UniProt P52333); details: H929 live cell
Protocol: as §1

Sequence of MASTL (Q96GX5 whole entry): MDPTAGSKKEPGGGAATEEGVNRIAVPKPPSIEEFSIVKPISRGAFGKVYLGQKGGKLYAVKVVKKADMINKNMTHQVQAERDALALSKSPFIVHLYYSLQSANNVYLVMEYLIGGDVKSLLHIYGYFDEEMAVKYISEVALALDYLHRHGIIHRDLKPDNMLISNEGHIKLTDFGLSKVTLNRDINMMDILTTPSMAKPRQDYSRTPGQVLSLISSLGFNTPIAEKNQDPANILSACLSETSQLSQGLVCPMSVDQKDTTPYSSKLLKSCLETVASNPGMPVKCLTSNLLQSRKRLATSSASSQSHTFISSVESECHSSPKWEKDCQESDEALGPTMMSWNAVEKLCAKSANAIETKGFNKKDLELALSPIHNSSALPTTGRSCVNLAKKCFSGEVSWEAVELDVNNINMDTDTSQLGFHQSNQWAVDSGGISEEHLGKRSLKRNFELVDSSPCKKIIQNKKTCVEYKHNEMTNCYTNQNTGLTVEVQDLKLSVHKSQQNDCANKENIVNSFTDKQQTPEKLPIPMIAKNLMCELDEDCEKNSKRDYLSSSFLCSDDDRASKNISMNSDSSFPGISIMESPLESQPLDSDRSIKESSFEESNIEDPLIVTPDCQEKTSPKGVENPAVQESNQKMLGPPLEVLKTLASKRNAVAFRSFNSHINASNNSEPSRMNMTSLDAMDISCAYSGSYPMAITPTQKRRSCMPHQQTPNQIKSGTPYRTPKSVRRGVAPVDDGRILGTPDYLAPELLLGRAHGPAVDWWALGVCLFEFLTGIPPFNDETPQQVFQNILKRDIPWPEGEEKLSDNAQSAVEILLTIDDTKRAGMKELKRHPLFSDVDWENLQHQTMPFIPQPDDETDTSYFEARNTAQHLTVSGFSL

## Nc1ncc(-c2cccc([N+](=O)[O-])c2F)cc1-c1ccc2c(c1)CCNC2=O [Compound I-9, 6-(2-amino-5-(2-fluoro-3-nitrophenyl)pyridin-3-yl)-3,4-dihydroisoquinolin-1(2H)-one]
MASTL; read-out: % inhibition (range)
  inhibition at 10 µM: 0%
MASTL; read-out: inhibition (10 μM)
  inhibition at 10 µM: -18.4%
TYK2 domain2; read-out: % inhibition (range)
  inhibition at 10 µM: 0%
TYK2 domain2; read-out: inhibition (10 μM)
  inhibition at 10 µM: 29.9%
p38d, p38g; 10 μM
  % inhibition (range): 0.0%
p38d, p38g
  inhibition (10 μM): −11.0%
PKR; read-out: % inhibition (range)
  inhibition at 10 µM: 0%
PKR; read-out: inhibition (10 μM)
  inhibition at 10 µM: -36.7%
NuaK1
  inhibition (10 μM): >90%
NuaK1; read-out: % inhibition (range)
  inhibition at 10 µM: > 90%
NuaK1; read-out: inhibition (10 μM)
  inhibition at 10 µM: 91%
CK1a; read-out: % inhibition (range)
  inhibition at 10 µM: 75 to 90%
CK1a; read-out: inhibition (10 μM)
  inhibition at 10 µM: 84.6%
Erk1; read-out: % inhibition (range)
  inhibition at 10 µM: 50 to 75%
Erk1; read-out: inhibition (10 μM)
  inhibition at 10 µM: 50.5%
CLK2; read-out: % inhibition (range)
  inhibition at 10 µM: > 90%
CLK2; read-out:
  inhibition at 10 µM: > 95%
MPSK1
  inhibition at 10 µM: 55.2%
CDK7; read-out: % inhibition (range)
  inhibition at 10 µM: 75 to 90%
CDK7; read-out: inhibition (10 μM)
  inhibition at 10 µM: 78.2%
PKCi; read-out: % inhibition (range)
  inhibition at 10 µM: 0%
PKCi; read-out: inhibition (10 μM)
  inhibition at 10 µM: 18.5%
NEK3; read-out: % inhibition (range)
  inhibition at 10 µM: 0%
NEK3; read-out: inhibition (10 μM)
  inhibition at 10 µM: -42.8%
MARK3; read-out: % inhibition (range)
  inhibition at 10 µM: 75 to 90%
MARK3; read-out: inhibition (10 μM)
  inhibition at 10 µM: 78.3%
IRAK1; read-out: % inhibition (range)
  inhibition at 10 µM: 75 to 90%
IRAK1; read-out: inhibition (10 μM)
  inhibition at 10 µM: 82.6%
GSK3A; read-out: % inhibition (range)
  inhibition at 10 µM: > 90%
GSK3A; read-out: inhibition (10 μM)
  inhibition at 10 µM: 97.2%
MST1; read-out: % inhibition (range)
  inhibition at 10 µM: > 90%
MST1; read-out: inhibition (10 μM)
  inhibition at 10 µM: 95.4%
MAP2K3; read-out: % inhibition (range)
  inhibition at 10 µM: 0%
MAP2K3; read-out: inhibition (10 μM)
  inhibition at 10 µM: -34.2%
p70S6K; read-out: % inhibition (range)
  inhibition at 10 µM: 0%
p70S6K; read-out: inhibition (10 μM)
  inhibition at 10 µM: -71.5%
MAST3; read-out: % inhibition (range)
  inhibition at 10 µM: 0%
MAST3; read-out: inhibition (10 μM)
  inhibition at 10 µM: 31.2%
p38a
  inhibition at 10 µM: 75 to 90%
SNRK; read-out: % inhibition (range)
  inhibition at 10 µM: 35 to 50%
SNRK; read-out: inhibition (10 μM)
  inhibition at 10 µM: 43.7%
HPK1; read-out: % inhibition (range)
  inhibition at 10 µM: > 90%
HPK1; read-out: inhibition (10 μM)
  inhibition at 10 µM: 97.5%
JAK3 domain2; read-out: % inhibition (range)
  inhibition at 10 µM: 0%
JAK3 domain2; read-out: inhibition (10 μM)
  inhibition at 10 µM: 2.6%
